Test results: patent US11485751B2, “Apramycin derivatives” (WAYNE STATE UNIVERSITY, priority 2017, dated 2022)
Converted amounts (≈) assume the structure as drawn.

Legend:
WT clinical isolates = experiment: MIC broth microdilution, WT; type: cell-based; details: read-out: MIC WT, clinical isolates, IMM Univ. Zurich; wild type
Summary of the method: (§1)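 Clinical isolates supplied by the Zurich Institute of Medical Microbiology were tested for MIC (μg/ml) using CLSI M07-A10 broth microdilution.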

[1] = test system: clinical isolates carrying AAC(3)-IV; experiment: MIC broth microdilution, AAC(3)-IV; type: cell-based; details: clinical isolates, IMM Univ. Zurich; AAC(3)-IV; read-out: MIC AAC(3)-IV
Summary of the method: as §1

isolates carrying apmA = experiment: MIC broth microdilution, apmA; type: cell-based; details: for MIC: apmA resistance gene
Summary of the method: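 Clinical isolates carrying apmA, from the University of Zurich Institute of Medical Microbiology, were tested by broth microdilution following CLSI M07-A10; values are MICs in μg/ml.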

bacterial ribosomes = experiment: in-vitro translation assay, bacterial ribosomes; type: biochemical
Summary of the method: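 Each ribosome preparation (bacterial, human chimeric as the mitochondrial model, rabbit reticulocyte as the cytosolic model) drives in-vitro translation with the test compound present. Inhibition of translation gives the IC50.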

[2] = test system: human mitochondrial ribosomes; experiment: in-vitro translation assay, human mitochondrial (human chimeric) ribosomes; type: biochemical
Summary of the method: (§2)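 Cell-free translation; IC50 read-out. Mito = human chimeric ribosomes; cytosolic = rabbit reticulocyte ribosomes; bacterial ribosomes run in the same assay format.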

[3] = test system: human cytosolic ribosomes; experiment: in-vitro translation assay, human cytosolic ribosomes; type: biochemical
Summary of the method: as §2

[4] = test system: AG212, Escherichia coli ATCC25922; experiment: MIC reference strain AG212; type: cell-based; details: Escherichia coli; reference strain ATCC25922; read-out: MIC AG212 E. coli
Summary of the method: (§3)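 Compounds serially diluted in broth, bacteria added, growth inhibition scored; the lowest inhibitory concentration is taken as MIC, following CLSI procedures.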

[5] = test system: AG215, Klebsiella pneumonia; experiment: MIC reference strain AG215; type: cell-based; details: Klebsiella pneumoniae, reference strain; read-out: MIC AG215 K. pneumonia
Summary of the method: as §3

[6] = test system: AG290, Enterobacter cloacae; experiment: MIC reference strain AG290; type: cell-based; details: Enterobacter cloacae; reference strain; read-out: MIC AG290 E. cloacae
Summary of the method: as §3

[7] = test system: AG220, Pseudomonas aeruginosa ATCC27853; experiment: MIC reference strain AG220; type: cell-based; details: Pseudomonas aeruginosa, ATCC27853, reference strain ATCC27853; read-out: MIC AG220 P. aeruginosa
Summary of the method: as §3

[8] = test system: AG225, Acinetobacter baumannii pittii; experiment: MIC reference strain AG225; type: cell-based; details: Acinetobacter baumannii, reference strain; read-out: MIC AG225 A. baumannii
Summary of the method: as §3

ATCC19977 M. abcessus = experiment: MIC reference strain ATCC19977; type: cell-based; details: reference strain; read-out: MIC ATCC19977 M. abcessus
Summary of the method: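 Broth microdilution, CLSI dilution method for aerobic bacteria; read-out is minimal inhibitory concentration (MIC).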

N. gonorrhoeae = experiment: Disk diffusion N. gonorrhoeae; type: cell-based
AG001 E. coli WT = experiment: Antibacterial activity, clinical isolate AG001; type: cell-based; design: unit not given here
Summary of the method: (§4)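 Compounds are serially diluted in liquid medium in microplates, bacteria are added, and the lowest concentration preventing growth is recorded as the MIC (CLSI procedure).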

AG055 E. coli WT = experiment: Antibacterial activity, clinical isolate AG055; type: cell-based; design: unit not given here
Summary of the method: as §4

AG003 E. coli AAC(3)-II = experiment: Antibacterial activity, clinical isolate AG003; type: cell-based
Summary of the method: as §4

AG173 E. coli AAC(3)-IV = experiment: Antibacterial activity, clinical isolate AG173; type: cell-based
Summary of the method: as §4

AG038 MRSA = experiment: Antibacterial activity, clinical isolate AG038; type: cell-based; design: unit not given here
Summary of the method: as §4

[9] = test system: AG039 MRSA AAC(6′)-I ANT(4′)-I; experiment: Antibacterial activity, clinical isolate AG039; type: cell-based
Summary of the method: as §4

[10] = test system: AG042 MRSA AAC(6′)-I ANT(4′)-I APH(2′); experiment: Antibacterial activity, clinical isolate AG042; type: cell-based; design: unit not given here
Summary of the method: as §4

AG031 P. aer. APH(3′)-II = experiment: Antibacterial activity, clinical isolate AG031; type: cell-based; design: unit not given here
Summary of the method: as §4

AG032 P. aer. APH(3′)-II = experiment: Antibacterial activity, clinical isolate AG032; type: cell-based; design: unit not given here
Summary of the method: as §4

[11] = test system: AG033 P. aer. APH(3′)-II AAC(6′)-I; experiment: Antibacterial activity, clinical isolate AG033; type: cell-based; design: unit not given here
Summary of the method: as §4

[12] = test system: Engineered E. coli pH430 WT; experiment: Activity, engineered E. coli pH430 WT; type: cell-based; details: wild type
Summary of the method: (§5)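 Broth microdilution per CLSI M07-A10; readout MIC.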

[13] = test system: Engineered E. coli pH424 armA; experiment: Activity against G1405-methylated 16S-rRNA, E. coli pH424 armA; type: cell-based
Summary of the method: as §5

[14] = test system: Engineered E. coli pH425 rmtB; experiment: Activity against G1405-methylated 16S-rRNA, E. coli pH425 rmtB; type: cell-based
Summary of the method: as §5

[15] = test system: Engineered E. coli pH426 rmtC; experiment: Activity against G1405-methylated 16S-rRNA, E. coli pH426 rmtC; type: cell-based
Summary of the method: as §5

[16] = test system: Engineered E. coli pH427 rmtF; experiment: Activity against G1405-methylated 16S-rRNA, E. coli pH427 rmtF; type: cell-based
Summary of the method: as §5

[17] = test system: clinical isolates carrying APH(3′)-I; experiment: MIC broth microdilution, APH(3′)-I; type: cell-based; details: IMM Univ. Zurich
[18] = test system: clinical isolates carrying APH(3′)-III; experiment: MIC broth microdilution, APH(3′)-III; type: cell-based; details: IMM Univ. Zurich
Source text: Minimal inhibitory concentrations (MIC) have been determined by broth microdilution assays (CLSI. Methods for Dilution Antimicrobial Susceptibility Tests for Bacteria That Grow Aerobically; Approved Standard—Tenth Edition. CLSI document M07-A10. Wayne, Pa.: Clinical and Laboratory Standards Institute; 2015.).
Minimal inhibitory concentrations (MICs, […]) against clinical isolates from Institute of Medical Microbiology, Univ. Zurich, and the IC50 values for bacterial, human mitochondrial and human cytosolic ribosomes are indicated.

[19] = test system: clinical isolates carrying APH(3′)-VI; experiment: MIC broth microdilution, APH(3′)-VI; type: cell-based; details: IMM Univ. Zurich
AG163 E. coli APH(3′)-I = experiment: Antibacterial activity, clinical isolate AG163; type: cell-based
Summary of the method: as §4

[20] = test system: Engineered E. coli AG103 armA; experiment: Activity against G1405-methylated 16S-rRNA, E. coli AG103 armA; type: cell-based
Summary of the method: as §5

[21] = test system: E. coli AG153 AAC(3)-II APH(3′)-II rmtB; experiment: Activity against G1405-methylated 16S-rRNA, clinical isolate AG153; type: cell-based
Summary of the method: as §5

[22] = test system: K. pneum. AG269 AAC(3)-II AAC(6′)-I rmtB; experiment: Activity against G1405-methylated 16S-rRNA, clinical isolate AG269; type: cell-based
Summary of the method: as §5

[23] = test system: Enterob. AG302 AAC(3)-II AAC(6′)-I rmtC; experiment: Activity against G1405-methylated 16S-rRNA, clinical isolate AG302; type: cell-based
Summary of the method: as §5

[24] = test system: A baum. AG227 APH(3′)-I armA; experiment: Activity against G1405-methylated 16S-rRNA, clinical isolate AG227; type: cell-based
Summary of the method: as §5

Row | Structure (SMILES) | MIC (WT clinical isolates) [µg/mL] | MIC [1] [µg/mL] | MIC (isolates carrying apmA) [µg/mL] | IC50 (bacterial ribosomes) [µM] | IC50 [2] [µM] | IC50 [3] [µM] | MIC [4] [µg/mL] | MIC [5] [µg/mL] | MIC [6] [µg/mL] | MIC [7] [µg/mL] | MIC [8] [µg/mL] | MIC (ATCC19977 M. abcessus) [µg/mL] | Disk diffusion 25 nmol N. gonorrhoeae (N. gonorrhoeae) [mm] | Antibacterial activity AG001 E. coli WT (AG001 E. coli WT) | Antibacterial activity AG055 E. coli WT (AG055 E. coli WT) | Antibacterial activity AG003 E. coli AAC(3)-II (AG003 E. coli AAC(3)-II) | Antibacterial activity AG173 E. coli AAC(3)-IV (AG173 E. coli AAC(3)-IV) | Antibacterial activity AG038 MRSA (AG038 MRSA) | Antibacterial activity AG039 MRSA AAC(6′)-I ANT(4′)-I [9] | Antibacterial activity AG042 MRSA AAC(6′)-I ANT(4′)-I APH(2′) [10] | other results
1 | CNC1C(OC2OC(CO)C(N)C(O)C2O)OC2CC(N)C(OC3C(N)CC(N)C(O)C3O)OC2C1O (stereo not drawn) [DC161, 5-Epi-apramycin] | 2 (≈ 3.71 µM) | > 32 | 2 (≈ 3.71 µM) | 0.05 | 20 | 17 | 2 | 1 | 2 | 2 | 2 | 0.5 (≈ 0.927 µM) | 10 | 4 | 4 | 4-8 | 64 | 4 | 4 | 2-4 | circumvention of the resistance mechanism apmA (isolates carrying apmA): circumvent the resistance mechanism apmA; Antibacterial activity AG031 P. aer. APH(3′)-II (AG031 P. aer. APH(3′)-II): 4; Antibacterial activity AG032 P. aer. APH(3′)-II (AG032 P. aer. APH(3′)-II): 4; Antibacterial activity AG033 P. aer. APH(3′)-II AAC(6′)-I [11]: 8; Activity E. coli pH430 WT [12]: 2; Activity E. coli pH424 armA [13]: 2; Activity E. coli pH425 rmtB [14]: 2; Activity E. coli pH426 rmtC [15]: 2; Activity E. coli pH427 rmtF [16]: 2
2 | CNC1C(O[C@H]2OC(CO)[C@@H](N)C(O)C2O)O[C@H]2CC(N)[C@@H](O[C@@H]3C(N)C[C@@H](N)C(O)C3O)OC2C1O (stereo partly drawn) [apramycin] | 2 to 4 (≈ 3.71 to 7.41 µM) | > 128 | 64 (≈ 119 µM) | 0.08 | 68 | 71 | 4 | 2 | 4 | 4 | 4 | 2 (≈ 3.71 µM) | <8 | 8-16 | 8 | 8 | ≥128 | 4-8 | 8 | 8 | MIC [17]: 1 to 2 µg/mL (≈ 1.85 to 3.71 µM); MIC [18]: 1 µg/mL (≈ 1.85 µM); MIC [19]: 4 µg/mL (≈ 7.41 µM); Antibacterial activity AG163 E. coli APH(3′)-I (AG163 E. coli APH(3′)-I): 4; Antibacterial activity AG031 P. aer. APH(3′)-II (AG031 P. aer. APH(3′)-II): 8-16; Antibacterial activity AG032 P. aer. APH(3′)-II (AG032 P. aer. APH(3′)-II): 8; Antibacterial activity AG033 P. aer. APH(3′)-II AAC(6′)-I [11]: 16-32; Activity E. coli pH430 WT [12]: 2-4; Activity E. coli AG103 armA [20]: 1-2; Activity E. coli pH424 armA [13]: 2-4; Activity E. coli pH425 rmtB [14]: 4; Activity E. coli pH426 rmtC [15]: 4; Activity E. coli pH427 rmtF [16]: 4; Activity E. coli AG153 AAC(3)-II APH(3′)-II rmtB [21]: 8; Activity K. pneum. AG269 AAC(3)-II AAC(6′)-I rmtB [22]: 2; Activity Enterob. AG302 AAC(3)-II AAC(6′)-I rmtC [23]: 4; Activity A baum. AG227 APH(3′)-I armA [24]: 2
